Entries after “also recorded” stand apart in the source; their conditions may differ. Where a name gives a salt, the structure may show the parent alone. Read-outs that look alike come from different tables or passages of the source.
Tests used:
Type in all cases: physicochemical
[1] = Kinetic solubility in water and bio-relevant media (SGF, FaSSIF, FeSSIF) at 37° C.; conditions: for S: Solubility: calculated by freeform; for FC: Form change: residual solids by XRPD; for solubility at 2 h: highest solubility
Procedure, shortened: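 Compound rolled at 37 °C (~25 rpm) in water, SGF (pH 1.8, NaCl, Triton X-100), FaSSIF (pH 6.5 phosphate, SIF powder) or FeSSIF (pH 5.0 acetate, SIF powder). Samples at 1, 2, 4 and 24 h were centrifuged and 0.45 μm-filtered; filtrate concentration and pH measured, residual solid checked by XRPD.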

[2] = Slurry competition among Meglumine salt Type A/B/C; conditions: slurry competition in DMSO/EtOAc (1:6, v/v), RT and 50° C.
Method: The detailed procedures are as following:
Add 1 mL corresponding solvent.
2) Magnetically stir at RT or 50° C. for 1 day. Filter through 0.45 μm PTFE filter to obtain clear solution.
4) Magnetically stir at RT or 50° C. for 1 day. Test XRPD of the wet cake.

[3] = Solubility of Meglumine salt Type A in SGF and FaSSIF at 37° C. with adjusting pH to that of the blank medium; conditions: for solubility at 2 h / solubility at 4 h: read-out: S (solubility)
Method: Detailed procedures are as follows.
1) Added ˜40 mg of sample into a 5-mL glass vial. Add 4 mL of medium. Adjust pH to 1.8 or 6.5 using HCl (1 M) or NaOH (1 M).
2) Rolled at 37° C. (˜25 rpm). Sample at 1, 2, 4 and 24 hrs.
3) At each time-point, sample 0.8 mL of solution or suspension into a centrifuge tube prior to centrifugation (12000 rpm, 37° C., 5 min) and filtration through 0.45 μm PTFE membrane.
4) Adjusted pH of the rest of suspension to 1.8 or 6.5 using HCl (1 M) or NaOH (1 M).

[4] = pH 1.8, simulated gastric fluid, thermodynamic from solid, SGF, pH adjusted to 1.8, 37° C., read-out: solubility in SGF
[5] = pH 6.5, thermodynamic from solid, FaSSIF, pH adjusted to 6.5, 37° C., read-out: solubility in FaSSIF

Structure (SMILES): N#Cc1ccc(COc2cccc(C3CCN(Cc4nc5ccc(C(=O)O)cc5n4Cc4cncs4)CC3)n2)c(F)c1 [Meglumine salt Type A]
- S: Solubility ([1]; FaSSIF, 37° C., 1 hr): 900 µg/mL
- FC: Form change ([1]; FaSSIF, 37° C., 1 hr): Yes
- S: Solubility ([1]; FaSSIF, 37° C., 2 hrs): 1300 µg/mL
- FC: Form change ([1]; FaSSIF, 37° C., 2 hrs): Yes
- S: Solubility ([1]; FaSSIF, 37° C., 4 hrs): 720 µg/mL
- FC: Form change ([1]; FaSSIF, 37° C., 4 hrs): Yes
- S: Solubility ([1]; FaSSIF, 37° C., 24 hrs): 70 µg/mL
- FC: Form change ([1]; FaSSIF, 37° C., 24 hrs): Yes
- solubility at 2 h ([1]; FaSSIF, 37 °C, pH 6.5, fassif, thermodynamic from solid, FaSSIF, 37° C., read-out: solubility in FaSSIF): 1300 µg/mL
- S: Solubility ([1]; FeSSIF, 37° C., 1 hr): 170 µg/mL
- FC: Form change ([1]; FeSSIF, 37° C., 1 hr): Yes
- S: Solubility ([1]; FeSSIF, 37° C., 2 hrs): 170 µg/mL
- FC: Form change ([1]; FeSSIF, 37° C., 2 hrs): Yes
- S: Solubility ([1]; FeSSIF, 37° C., 4 hrs): 86 µg/mL
- FC: Form change ([1]; FeSSIF, 37° C., 4 hrs): Yes
- S: Solubility ([1]; FeSSIF, 37° C., 24 hrs): 27 µg/mL
- FC: Form change ([1]; FeSSIF, 37° C., 24 hrs): Yes
- S: Solubility ([1]; H2O, 37° C., 1 hr): >8600 µg/mL
- S: Solubility ([1]; H2O, 37° C., 2 hrs): >8900 µg/mL
- S: Solubility ([1]; H2O, 37° C., 4 hrs): >8300 µg/mL
- S: Solubility ([1]; H2O, 37° C., 24 hrs): 7000 µg/mL
- FC: Form change ([1]; H2O, 37° C., 24 hrs): Yes
- solubility compared with the other selected salts and Freeform Type C ([1]; H2O, SGF and FaSSIF, 37° C.): higher solubility than other salts and Freeform Type C; also recorded: higher solubility in H2O, SGF and FaSSIF
- S: Solubility ([1]; SGF, 37° C., 1 hr): 380 µg/mL
- FC: Form change ([1]; SGF, 37° C., 1 hr): Yes
- S: Solubility ([1]; SGF, 37° C., 2 hrs): 720 µg/mL
- FC: Form change ([1]; SGF, 37° C., 2 hrs): Yes
- S: Solubility ([1]; SGF, 37° C., 4 hrs): 680 µg/mL
- FC: Form change ([1]; SGF, 37° C., 4 hrs): Yes
- S: Solubility ([1]; SGF, 37° C., 24 hrs): 290 µg/mL
- FC: Form change ([1]; SGF, 37° C., 24 hrs): Yes
- solubility at 2 h ([1]; SGF, 37 °C, pH 1.8, simulated gastric fluid, thermodynamic from solid, SGF, 37° C., read-out: solubility in SGF): 720 µg/mL
- form change of residual solids (XRPD) after solubility test ([1]; all the media (H2O, SGF, FaSSIF, FeSSIF), after 24 hrs): form change was observed
- Kinetic Solubility ([1]; in H2O, SGF and FaSSIF, comparison among selected salts and Freeform Type C): 1) In H2O, SGF and FaSSIF, Meglumine salt Type A exhibited higher solubility than other salts and Freeform Type C;
- solubility ([1]; water, 37 °C, thermodynamic from solid, H2O, at 1, 2 and 4 hrs): > 8300 µg/mL
- solubility ([1]; water, 37 °C, thermodynamic from solid, H2O, throughout the 24-hour process): ≥ 7000 µg/mL
- solubility at 24 h ([1]; water, 37 °C, water, thermodynamic from solid, H2O, 37° C., at 24 hrs, read-out: solubility in H2O): 7000 µg/mL
- thermodynamic stability relationship among Meglumine salt forms [2]: thermodynamically more stable anhydrate; also recorded: more thermodynamically stable form; also recorded: thermodynamically more stable form
- S (solubility) ([3]; SGF, 37° C., pH adjusted to 1.8, 1 hr): 730 µg/mL
- solubility at 2 h ([3]; pH 1.8, simulated gastric fluid, thermodynamic from solid, SGF, 37° C., pH adjusted to 1.8, 2 hrs): 160 µg/mL
- solubility at 4 h ([3]; pH 1.8, simulated gastric fluid, thermodynamic from solid, SGF, 37° C., pH adjusted to 1.8, 4 hrs): 120 µg/mL
- solubility at 1 h [3, 4]: 730 µg/mL
- solubility at 24 h [3, 4]: 140 µg/mL
- solubility at 2 h ([3]; pH 6.5, thermodynamic from solid, FaSSIF, 37° C., pH adjusted to 6.5, 2 hrs): 14 µg/mL
- solubility at 4 h ([3]; pH 6.5, thermodynamic from solid, FaSSIF, 37° C., pH adjusted to 6.5, 4 hrs): 11 µg/mL
- solubility at 1 h [3, 5]: 29 µg/mL
- solubility at 24 h [3, 5]: 6 µg/mL

Source: patent publication US20240360122A1, “POLYMORPHIC FORMS AND SALTS OF A GLP-1R AGONIST” (Terns (Suzhou) Biotechnology Co., Ltd., priority 2023, published 2024)
